Assay results as given in patent US20090234097A1, “VASODILATOR” (CALPIS CO., LTD., priority 2006, published 2009).

Tested on: thoracic aorta ring of a Wistar rat
Experiment: Vasodilating test on phenylephrine-preconstricted aorta ring (Magnus apparatus)
Details: at 10 mM (printed 10 mm); aorta ring preconstricted with 1 μM phenylephrine
Method: The thoracic aorta of a Wistar rat was taken out, cut into 2 mm long, and made into an aorta ring. The ring was set in a Magnus apparatus (product name “micro tissue organ bath MTB-1Z”, manufactured by LABO SUPPORT CO., LTD.), and allowed to equilibrate with a constant tension. The constriction response of the aorta ring was confirmed with 50 mM KCl.
Next, the aorta ring was preliminarily constricted with 1 μM phenylephrine, and VPP and IPP prepared in Synthesis Example were added at ten-fold increasing concentrations from 10^−9 M to observe the vasodilator response through the change in tension of the aorta ring. The dose dependency of the vasodilator response was also studied.
The vasodilating test was conducted in the same way as in Example 1, except that the tripeptides VPP and IPP were replaced with amino acids, valine (Val) and proline (Pro), at the same concentration.

SMILES | vasodilator response (change in tension of the aorta ring)
O=C(O)[C@@H]1CCCN1 [Pro, proline] | no vasodilator response was observed
CC(C)[C@H](N)C(=O)O [Val, valine] | no vasodilator response was observed
